Measurements published in ChEMBL document CHEMBL1201862, “PubChem BioAssay data set” (2004).
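Step 1: Grow cells in 96-well plates. Step 2: Expose to compound for 48 hours at 5 concentrations. Step 3: Interpolate endpoints linearly; if unreached, use highest concentration. GI50 is the concentration that inhibits growth by half.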 Active and inactive are the calls of the source. No stated cut-off is given here; in the data, active = GI50 up to about 1.1 µM and inactive = higher.

How the values were obtained:
Assay in all cases: NCI tumour cell line growth inhibition, 48 h
[1] = tested on: MCF7
[2] = tested on: LOX IMVI
[3] = tested on: NCI-H522
[4] = tested on: SN12C
[5] = tested on: SNB-19
[6] = tested on: A498
[7] = tested on: K562
[8] = tested on: IGROV-1
[9] = tested on: SF-268
[10] = tested on: NCI/ADR-RES
[11] = tested on: OVCAR-5
[12] = tested on: SK-MEL-2
[13] = tested on: NCI-H226
[14] = tested on: HT-29
[15] = tested on: UO-31
[16] = tested on: HOP-62
[17] = tested on: SK-OV-3
[18] = tested on: KM12
[19] = tested on: NCI-H460
[20] = tested on: RPMI-8226

Measured: GI50

CC(C)C(C/C=C1\CC(CO)(COC(=O)CC(C(C)C)C(C)C)OC1=O)C(C)C (stereo not drawn)
inactive: [1] 15.7 µM | [2] 12.6 µM | [3] 13.8 µM | [4] 9.1 µM | [5] 13.3 µM | [6] 11.7 µM | [7] 1.36 µM | [8] 14.7 µM | [9] 14.2 µM | [10] 16 µM | [11] 13.9 µM | [12] 20.9 µM | [13] 9.04 µM | [14] 17.7 µM | [15] 6.87 µM | [16] 5.08 µM | [17] 17.7 µM | [18] 14.2 µM | [19] 4.07 µM

CC(=O)O.CN1CCN(CN2C(=O)C3C4C=CC(C3C2=O)C2C3C(=O)N(CN5CCN(C)CC5)C(=O)C3C42)CC1 (stereo not drawn)
inactive: [1] 32.3 µM | [2] 18.2 µM | [3] 18.6 µM | [4] 21.4 µM | [6] > 55.3 µM | [7] 22.2 µM | [8] 35.5 µM | [9] 27.5 µM | [10] 24.2 µM | [11] 23.9 µM | [14] 25.3 µM | [15] 25.2 µM | [16] > 50 µM | [20] 22.2 µM | [18] 22.3 µM | [19] 16.3 µM

C=C1C2CCC3(CCC4C5(C)CCCC4(C=[N+](CCO)C5)C3C2)C1O (stereo not drawn)
inactive: [1] > 100 µM | [2] > 100 µM | [3] > 100 µM | [4] > 100 µM | [5] > 100 µM | [6] > 100 µM | [7] > 10 µM | [8] > 100 µM | [9] > 100 µM | [10] > 100 µM | [11] > 100 µM | [12] > 100 µM | [14] > 100 µM | [15] > 100 µM | [16] > 100 µM | [17] > 100 µM | [20] > 100 µM | [18] > 100 µM | [19] > 100 µM

O=C(c1ccccc1)c1ccc(N2C(=O)/C(=C/Cc3ccco3)N=C2c2ccccc2)c(N2C(=O)/C(=C/Cc3ccco3)N=C2c2ccccc2)c1
inactive: [1] 52 µM | [2] 24.2 µM | [4] 71.6 µM | [5] 47.4 µM | [6] 51.5 µM | [7] 64.7 µM | [8] 39.2 µM | [9] 32.1 µM | [10] 33.8 µM | [11] > 100 µM | [12] 25.5 µM | [14] 43.4 µM | [15] 39 µM | [16] 40 µM | [17] 30.5 µM | [20] 27.8 µM | [18] 28.4 µM | [19] 36.6 µM

NS(=O)(=O)c1ccc(-c2ccc([As](=O)(O)O)cc2)cc1
inactive: [1] > 100 µM | [2] > 100 µM | [3] > 100 µM | [4] > 100 µM | [5] > 100 µM | [7] > 100 µM | [8] > 100 µM | [9] > 100 µM | [10] > 100 µM | [11] > 100 µM | [12] > 100 µM | [13] > 100 µM | [14] > 100 µM | [15] > 100 µM | [16] 78.3 µM | [17] > 100 µM | [20] > 100 µM | [18] > 100 µM | [19] > 100 µM

COc1ccc(C(=O)Sc2c(-c3ccccc3)c(=O)n(-c3ccccc3)c(=S)n2-c2ccccc2)cc1
inactive: [1] > 100 µM | [2] 74.5 µM | [3] > 100 µM | [4] 41.7 µM | [5] 43.5 µM | [6] 15.4 µM | [7] 37.1 µM | [8] 10.1 µM | [9] 67.5 µM | [10] > 100 µM | [11] > 100 µM | [13] 5.73 µM | [14] > 100 µM | [16] 34.5 µM | [17] > 100 µM | [18] > 100 µM | [19] > 100 µM

Cc1ccc(S(=O)(=O)N(CCN2C(=O)c3ccccc3C2=O)c2cc3c4c(c2)Oc2cc(N(CCN5C(=O)c6ccccc6C5=O)S(=O)(=O)c5ccc(C)cc5)cc5c2C4(C)c2c(cc(N(CCN4C(=O)c6ccccc6C4=O)S(=O)(=O)c4ccc(C)cc4)cc2O5)O3)cc1
inactive: [1] > 100 µM | [2] > 100 µM | [3] > 100 µM | [4] > 100 µM | [5] > 100 µM | [7] > 100 µM | [8] 57.3 µM | [9] > 100 µM | [10] > 100 µM | [11] > 100 µM | [12] > 100 µM | [13] > 100 µM | [14] > 100 µM | [15] > 100 µM | [16] > 100 µM | [17] > 100 µM | [20] > 100 µM | [18] > 100 µM | [19] > 100 µM

C[C@]12CC[C@@H]3c4cc(Br)c(O)c(Br)c4CC[C@H]3[C@@H]1CCC2=O
inactive: [1] 21.4 µM | [2] 20.4 µM | [4] 27.7 µM | [6] 40.9 µM | [7] 18 µM | [8] 38.1 µM | [9] 23.3 µM | [10] 12.5 µM | [11] 21.8 µM | [12] 15 µM | [13] 7.87 µM | [14] 46.1 µM | [15] 11.9 µM | [17] 31.4 µM | [18] 63.7 µM | [19] 21.4 µM
